The supplement of paper PMC10307832

Experiments:
Test in all cases: relative viability (nuclei count vs DMSO), 5 days (fraction); higher = more cells survive
[1] = compound: Cn1cc(-c2cnc3ccc4ccc(CS(=O)(=O)NCc5ccccn5)cc4c(=O)c3c2)cn1 [MK-8033] + Cc1nc(Nc2ncc(C(=O)Nc3c(C)cccc3Cl)s2)cc(N2CCN(CCO)CC2)n1 [Dasatinib] (partner 0.075 µM)
Outline: (§1)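 Cells from lung cancer lines were seeded into 1536-well plates and, one day later, dosed by pin tool. Treatments were either a single drug or a fixed dose of an anchor drug with five library-drug doses (not always all listed) in √10 steps. After 5 days, nuclei were stained in a one-step fixation (final 0.05% Triton X-100, 1% formaldehyde, 1 ug/ml Hoechst) and counted on 4× images, and relative viability is the treated-to-vehicle nuclei ratio, as the median of duplicate plates.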

[2] = compound: Cn1cc(-c2cnc3ccc4ccc(CS(=O)(=O)NCc5ccccn5)cc4c(=O)c3c2)cn1 [MK-8033] + CC1(C)CCC(c2ccc(Cl)cc2)=C(CN2CCN(c3ccc(C(=O)NS(=O)(=O)c4ccc(N[C@H](CCN5CCOCC5)CSc5ccccc5)c(S(=O)(=O)C(F)(F)F)c4)cc3)CC2)C1 [Navitoclax] (partner 0.5 µM)
Outline: as §1

[3] = compound: Cn1cc(-c2cnc3ccc4ccc(CS(=O)(=O)NCc5ccccn5)cc4c(=O)c3c2)cn1 [MK-8033] + COc1cc2c(Oc3ccc(NC(=O)C4(C(=O)Nc5ccc(F)cc5)CC4)cc3F)ccnc2cc1OCCCN1CCOCC1 [Foretinib] (partner 0.25 µM)
Outline: as §1

[4] = compound: Cn1cc(-c2cnc3ccc4ccc(CS(=O)(=O)NCc5ccccn5)cc4c(=O)c3c2)cn1 [MK-8033] + Nc1nc2[nH]cc(CCc3ccc(C(=O)N[C@@H](CCC(=O)O)C(=O)O)cc3)c2c(=O)[nH]1 [Pemetrexed] (partner 0.2 µM)
Outline: as §1

Row | Cell Line | relative viability ([1]; first compound 0.02 µM) | relative viability ([1]; first compound 0.06325 µM) | relative viability ([1]; first compound 0.2 µM) | relative viability ([1]; first compound 0.6325 µM) | relative viability ([1]; first compound 2 µM) | relative viability ([2]; first compound 0.02 µM) | relative viability ([2]; first compound 0.06325 µM) | relative viability ([2]; first compound 0.2 µM) | relative viability ([2]; first compound 0.6325 µM) | relative viability ([2]; first compound 2 µM) | relative viability ([3]; first compound 0.02 µM) | relative viability ([3]; first compound 0.06325 µM) | relative viability ([3]; first compound 0.2 µM) | relative viability ([3]; first compound 0.6325 µM) | relative viability ([3]; first compound 2 µM) | relative viability ([4]; first compound 0.02 µM) | relative viability ([4]; first compound 0.06325 µM) | relative viability ([4]; first compound 0.2 µM) | relative viability ([4]; first compound 0.6325 µM) | relative viability ([4]; first compound 2 µM)
1 | NCI-H2405 | 0.185 | 0.202 | 0.228 | 0.213 | 0.21 | 0.825 | 0.727 | 0.733 | 0.847 | 0.933 | 1.01 | 1.02 | 0.988 | 1.09 | 1.04 | 1.04 | 1.01 | 0.963 | 1.06 | 1.11
2 | NCI-H3122 | 0.734 | 0.655 | 0.586 | 0.814 | 0.876 | 1.03 | 1 | 1.03 | 1.01 | 1.05 | 0.962 | 0.958 | 0.93 | 0.908 | 0.974 | 0.201 | 0.201 | 0.195 | 0.188 | 0.198
3 | PC-3 [JPC-3] | 0.935 | 0.939 | 0.948 | 1.02 | 0.966 | 0.746 |  | 0.775 | 0.726 | 0.749 | 0.977 | 0.952 | 0.994 | 1 | 1.03 | 1.07 |  | 0.99 | 1.1 | 1.07
4 | PC-14 | 0.254 | 0.181 | 0.246 | 0.232 | 0.245 | 0.96 | 0.944 | 0.987 | 1.06 | 1.02 | 0.918 | 0.859 | 0.905 | 0.985 | 0.869 | 0.143 | 0.121 | 0.142 | 0.149 | 0.135
5 | RERF-LC-KJ | 0.648 | 0.742 | 0.752 | 0.631 | 0.746 | 0.972 | 0.867 | 0.756 | 0.844 | 0.882 | 0.869 | 0.854 | 0.829 | 0.928 | 0.875 | 0.459 | 0.467 | 0.501 | 0.462 | 0.471
6 | SK-LU-1 | 0.153 | 0.224 | 0.182 | 0.185 | 0.191 | 0.808 | 0.798 | 0.792 | 0.919 | 0.807 | 0.843 | 0.813 | 0.837 | 0.849 | 0.815 | 0.974 | 0.944 | 0.929 | 0.625 | 0.956
7 | SK-MES-1 | 0.347 | 0.337 | 0.427 | 0.365 | 0.411 | 1.23 | 1.16 | 1.16 | 1.23 | 1.18 | 0.899 | 0.86 | 0.858 | 0.805 | 0.851 | 0.986 | 0.949 | 0.904 | 0.892 | 0.853
8 | SW 1573 | 0.444 | 0.508 | 0.502 | 0.424 | 0.466 | 0.721 |  | 0.991 | 0.884 | 0.95 | 0.93 | 0.759 | 0.841 | 0.918 | 0.995 | 0.866 | 0.807 | 0.766 | 0.834 | 0.791
